Data from patent publication US11931347B2, “Method of screening for agents for differentiating stem cells” (MINERVA BIOTECHNOLOGIES CORPORATION, priority 2015, dated 2024).

Key:
T47D breast cancer cells = experiment: cancer cell migration, invasion assay (Platypus/Oris system); format: cell-based, human; conditions: FIG. 140
Experimental: We then tested an expanded panel of agents, including agents known to inhibit cancer growth or migration (FIG. 17) (Horm et al., 2012; Meng & Yue, 2014; Zhen et al., 2014), which is characteristic of aggressive or metastatic cancers. We also synthesized a series of novel small molecules, tested them in the stem cell drug screening assay, and then synthesized analogs of the best hits. These small molecules are pictured in FIGS. 18-27. Both the known compounds and the novel compounds were tested in the stem cell drug screening assay. The effects of the small molecules on naïve versus primed state stem cells are shown in the photographs of FIGS. 29-72. The small molecules pictured in FIGS. 17-27 and the biologicals were also tested in a cancer cell migration assay. A structure activity relationship table is seen in FIG. 28. Potent cancer cell migration is characteristic of cancer cell invasion of other tissues and of metastasis. Typical migration assays involve coating a cell culture plate with fibronectin, collagen or the like, plating cancer cells and making a scar across through the cells and measuring the time it takes for the cancer cells to invade the void space. An alternative approach that gives more reliable data is the Platypus System which is a special multi-well cell culture plate with a juxtaposed set of plugs that block off a circle in the center of each well. Cancer cells are plated while the plugs are in place, then they are removed after the cells attach to the plate surface. […] A bar graph summarizing the results of the known anti-migration compounds compared to the anti-MUC1* Fab E6 and the first few small molecules synthesized is shown in FIG. 73. The effect of two novel small molecules MN1186 and MN1194, compared to the known anti-migration molecule SU11274, is shown in FIG. 75A-75U. FIG. 75V is a graph showing the measured inhibition of cancer cell migration at time 0, 24 hours or 48 hours for a number of compounds. […] FIG. 75X is a graph showing how IC50's of the small molecules of the invention were measured and calculated.
Percent inhibition of cancer cell migration was performed in a wound healing assay. The Percent area that the invading cancer cells occupied, in the presence of a drug candidate compared to the controls, was quantified by Image J cell software which enables cell counting from photographs. IC50's were calculated by performing migration experiments at several compound concentrations and then applying Hill's equation. Inhibition of cancer cell proliferation was quantified by automated cell counting in the presence or absence of a drug candidate. Here, the potency of the drug candidate was simply scored 4 for the highest degree of inhibition and 0 for the lowest. […] The effect of each drug candidate was scored 0-4, with 4 being the highest in inhibiting cell proliferation (FIG. 28).
(§1) For the cancer cell migration experiment cancer cells were plated at varying densities into an Oris Cell Migration Assay Collagen-1 coated 96-well plate (Platypus Technologies LLC, Madison, Wis.). The Collagen-1 coated 96-well plate incorporates a specific vacuum plug which attaches to the bottom of each well, creating an area in which the cells cannot grow into. Once the cells have been plated at high densities into each well, they are allotted an 18-24 hour time period to attach to the bottom of the wells. Post-24 hour plugs are removed from the plate and then small molecule analogs are added to the wells. Images are taken of each well and represent time 0 (T=0) for each well. Images are taken of the wells at the 24, 48, 72, 96 and 120 hour time points. Data analysis is conducted using the images taken at these specific time point. Images are imported into ImageJ (Rasband, W. S., ImageJ, U. S. National Institutes of Health, Bethesda, Md., USA, http://imagej.nih.gov/ij/, 1997-2016.) and the area remaining free of cells is calculated. […]

[1] = system: DU145 prostate cancer cells; experiment: cancer cell migration assay with Fabs and N-10 peptide; format: cell-based; conditions: FIG. 140
Experimental: (§2) The cancer sub-types that were tested were CHL-1 melanoma (MUC1*^+/NME7^+/NME7-X1^+), A2058 melanoma (MUC1*^+/NME7AB^+/NME7-X1^++), SK-OV-3 ovarian cancer (MUC1*^+/NME7^+/NME7-X1^+), A549 lung cancer (MUC1*^LO), T47D breast cancer (MUC1*^+++/NME7AB^+++/NME7-X1^+++), DU145 (MUC1*^++/NME7AB^+++/NME7-X1^+++) prostate cancer and PC-3 (MUC1*^−/NME7AB^+++/NME7-X1^+++) prostate cancer cells.
as §1, with “Data analysis is conducted using the images taken at these specific time point.” left out

[2] = system: PC-3 prostate cancer cells; experiment: as above; format: cell-based; conditions: FIG. 140
Experimental: as §2
as §1, with “Data analysis is conducted using the images taken at these specific time point.” left out

[3] = system: MUC1* extracellular domain - NME1 dimers / NME7AB interaction; experiment: direct binding (gold nanoparticle) assay of MUC1*-NME interaction; set-up: species or system human; conditions: previously shown
Description: WO2009/042815 discloses that in a direct binding assay a series of carboline molecules inhibited the interaction between the extracellular domain of MUC1* and NME proteins, especially NME1 dimers and NME7AB. […] We tested a panel of ten small molecules, including three carbolines (FIG. 1), and biologicals for their ability to inhibit naïve stem cell pluripotency or growth compared to primed state stem cells.
Most of the novel compounds of the invention are carbolines or carboline-like molecules. […] However, in our nanoparticle assay, we can only determine that a compound disrupts the interaction between MUC1* extracellular domain peptide and NME1 dimers or NME7AB. We cannot tell if the compound does so by binding to MUC1* or its ligand. Recall that our compound hits are first identified in the stem cell drug screening assay for their ability to inhibit stem cell pluripotency or proliferation. […]
Recall that we had previously shown that some carbolines inhibited the binding of ligands NME1 or NME7AB to the extracellular domain of the MUC1* growth factor receptor. The assay we used was a gold nanoparticle assay that only gives a readout when the targeted interaction is disrupted, so it could not determine whether the carboloines disrupted binding of MUC1* to its ligands by binding to the ligand, NME7AB, or to MUC1*. […]

Substance: N-10 peptide: truncated MUC1* extracellular domain peptide QFNQYKTEAASRYNLTISDVSVSDVPFPFSAQSGA (SEQ ID NO:4) (N-10 peptide of PSMGFR in which ten amino acids at the N-terminus has been removed)
- inhibition of migration of T47D cells by Fabs and peptide (T47D breast cancer cells): inhibited migration
- inhibition of migration of DU145 prostate cancer cells by Fabs and peptide [1]: inhibited migration
- inhibition of migration of PC-3 cells by Fabs and peptide [2]: only the N-10 peptide inhibited migration
- competitive inhibition of NME ligand binding to MUC1* extracellular domain [3]: inhibits their binding to their cognate receptors including the MUC1* extracellular domain
